According to patent US4200573A, “Derivatives of 3-carboxyrifamycin S and SV and process for their preparation” (Alfa Farmaceutici, S.p.A., priority 1977, dated 1980):
In brackets after ≈: the same amount, converted by molar mass. Entries after “also recorded” stand apart in the source; their conditions may differ.

Experiments:
St. Aureus 209 P = experiment: Minimal inhibiting concentration (MIC), in vitro antibacterial activity, St. Aureus 209 P; format: cell-based; details: Staphylococcus aureus
Excerpt: (§1) The derivatives of 3-carboxyrifamycins S and SV according to the present invention have an antibacterial activity in vitro as shown by the data in the examples where are reported the minimal inhibiting concentrations (MIC) expressed in mcg/ml against different patogenic microorganisms.

Klebsiella Ottaviani = experiment: Minimal inhibiting concentration (MIC), in vitro antibacterial activity, Klebsiella Ottaviani; format: cell-based; details: read-out: Minimal inhibiting concentration (MIC)
Excerpt: as §1

Salmonella p typhi B = experiment: Minimal inhibiting concentration (MIC), in vitro antibacterial activity, Salmonella p typhi B; format: cell-based; details: read-out: Minimal inhibiting concentration (MIC)
Excerpt: as §1

E. Coli ML/35 = experiment: Minimal inhibiting concentration (MIC), in vitro antibacterial activity, E. Coli ML/35; format: cell-based; details: Escherichia coli
Excerpt: as §1

[1] = chemical stability (observation); format: physicochemical

| Compound | MIC (St. Aureus 209 P) | MIC (Klebsiella Ottaviani) | MIC (Salmonella p typhi B) | MIC (E. Coli ML/35) | stability [1] |
| --- | --- | --- | --- | --- | --- |
| CO[C@H]1/C=C/O[C@@]2(C)Oc3c(C)c(O)c4c(c3C2=O)C(=O)C(C(=O)OCC(O)CO)=C(NC(=O)/C(C)=C\C=C\[C@H](C)[C@H](O)[C@@H](C)[C@@H](O)[C@@H](C)[C@H](OC(C)=O)[C@@H]1C)C4=O (some centres unmarked) [Example 12, 3-(1 glyceroxycarbonyl)rifamycin S] | ~0.5 µg/mL (≈ 0.614 µM) | > 100 µg/mL | > 100 µg/mL | > 100 µg/mL |  |
| 3-carboxyrifamycin |  |  |  |  | instable product and gives very easily rise to reaction of decarboxylation; also recorded: unstable product which easily decomposes |
| CO[C@H]1/C=C/O[C@@]2(C)Oc3c(C)c(O)c4c(c3C2=O)C(=O)C(C(=O)N(C)C)=C(NC(=O)/C(C)=C\C=C\[C@H](C)[C@H](O)[C@@H](C)[C@@H](O)[C@@H](C)[C@H](OC(C)=O)[C@@H]1C)C4=O [Example 13, 3-(N,N dimethylaminocarbonyl)rifamycin S] |  | > 50 µg/mL | > 50 µg/mL | > 50 µg/mL |  |
| CO[C@H]1/C=C/O[C@@]2(C)Oc3c(C)c(O)c4c(c3C2=O)C(=O)C(C(=O)N(C)N2CCCCC2)=C(NC(=O)/C(C)=C\C=C\[C@H](C)[C@H](O)[C@@H](C)[C@@H](O)[C@@H](C)[C@H](OC(C)=O)[C@@H]1C)C4=O [Example 14, 3-((N-(N'-piperidinyl)N-methyl)aminocarbonyl)rifamycin S] | ~0.03 µg/mL (≈ 0.0359 µM) | > 50 µg/mL | > 50 µg/mL | > 50 µg/mL |  |
| COC(=O)C1=C2NC(=O)/C(C)=C\C=C\[C@H](C)[C@H](O)[C@@H](C)[C@@H](O)[C@@H](C)[C@H](OC(C)=O)[C@H](C)[C@@H](OC)/C=C/O[C@@]3(C)Oc4c(C)c(O)c(c(c4C3=O)C1=O)C2=O [Example 6, 3-(carbomethoxy)rifamycin S] | 0.05 to 0.1 µg/mL (≈ 0.0663 to 0.133 µM) | 25 to 50 µg/mL (≈ 33.2 to 66.3 µM) | > 50 µg/mL | 25 to 50 µg/mL (≈ 33.2 to 66.3 µM) |  |
| CO[C@H]1/C=C/O[C@@]2(C)Oc3c(C)c(O)c4c(c3C2=O)C(=O)C(C(=O)NN(C)C)=C(NC(=O)/C(C)=C\C=C\[C@H](C)[C@H](O)[C@@H](C)[C@@H](O)[C@@H](C)[C@H](OC(C)=O)[C@@H]1C)C4=O [Example 10, 3-(NN-dimethyl N-hydrazinocarbonyl)rifamycin S] |  | > 50 µg/mL | > 50 µg/mL | > 50 µg/mL |  |
| CO[C@H]1/C=C/O[C@@]2(C)Oc3c(C)c(O)c4c(c3C2=O)C(=O)C(C(=O)N2CCN(C)CC2)=C(NC(=O)/C(C)=C\C=C\[C@H](C)[C@H](O)[C@@H](C)[C@@H](O)[C@@H](C)[C@H](OC(C)=O)[C@@H]1C)C4=O [Example 8, 3-(N-methyl N'-piperazinylcarbonyl)rifamycin S] | 0.1 to 0.25 µg/mL (≈ 0.122 to 0.304 µM) | > 50 µg/mL | > 50 µg/mL | > 50 µg/mL |  |
